In ChEMBL document CHEMBL2029203, “Discovery of potent antimicrobial peptide analogs of Ixosin-B” (Bioorg Med Chem Lett, 2012):
Values after ≈ are worked out from the molar mass of the structure shown. Residues, ends and D or L forms follow the SMILES beside them.

Tests used:
Pseudomonas aeruginosa = experiment: Antimicrobial activity against Pseudomonas aeruginosa ATCC 27853 after 18 to 20 hrs by spectrophotometry; format: functional
Escherichia coli [1] = experiment: Antimicrobial activity against Escherichia coli ATCC 25922 after 18 to 20 hrs by spectrophotometry; format: functional
[2] = Toxicity against human erythrocytes assessed as hemolysis at 100 uM after 1 hr by spectrophotometry; format: cell-based, Erythrocyte; conditions: read-out: Activity
Staphylococcus aureus [3] = experiment: Antimicrobial activity against Staphylococcus aureus ATCC 25923 after 18 to 20 hrs by spectrophotometry; format: functional
Escherichia coli [4] = experiment: Antimicrobial activity against Escherichia coli; format: functional
Candida albicans = experiment: Antimicrobial activity against Candida albicans; format: functional
Staphylococcus aureus [5] = experiment: Antimicrobial activity against Staphylococcus aureus; format: functional

| MIC (Pseudomonas aeruginosa) [µM] | MIC (Escherichia coli [1]) [µM] | MIC (Staphylococcus aureus [3]) [µM] | MIC (Escherichia coli [4]) [µg/mL] | MIC (Candida albicans) [µg/mL] | MIC (Staphylococcus aureus [5]) [µg/mL] | SMILES | hemolysis at 1 h, 100 µM [2] [%] |
| --- | --- | --- | --- | --- | --- | --- | --- |
| 20 (≈ 33.3 µg/mL) | 30 (≈ 50 µg/mL) | 5 (≈ 8.34 µg/mL) | – | – | – | CC(C)C[C@H](NC(=O)[C@H](CCCNC(=N)N)NC(=O)[C@@H](N)CCCCN)C(=O)N[C@@H](CCCNC(=N)N)C(=O)N[C@@H](CCCNC(=N)N)C(=O)N[C@H](C(=O)N[C@@H](Cc1c[nH]c2ccccc12)C(=O)N[C@@H](CCCNC(=N)N)C(=O)N[C@@H](CCCNC(=N)N)C(=O)N[C@@H](Cc1c[nH]c2ccccc12)C(=O)N[C@@H](CCCNC(=N)N)C(N)=O)C(C)C (H-KRLRRVWRRWR-NH2) | 3 |
| > 100 | > 100 | > 100 | – | – | – | CC(C)[C@H](NC(=O)[C@H](CC(=O)O)NC(=O)[C@H](CO)NC(=O)[C@@H](N)CCCCN)C(=O)N[C@@H](CCCNC(=N)N)C(=O)N[C@@H](CCCNC(=N)N)C(=O)N[C@@H](Cc1c[nH]c2ccccc12)C(=O)N[C@@H](CCCNC(=N)N)C(=O)N[C@@H](CO)C(=O)N[C@@H](CCCNC(=N)N)C(=O)N[C@@H](Cc1ccc(O)cc1)C(N)=O (H-KSDVRRWRSRY-NH2) | – |
| 40 (≈ 61.2 µg/mL) | 30 (≈ 45.9 µg/mL) | 60 (≈ 91.7 µg/mL) | – | – | – | CC(C)C[C@H](NC(=O)[C@H](CO)NC(=O)[C@@H](N)CCCCN)C(=O)N[C@@H](CCCNC(=N)N)C(=O)N[C@@H](CCCNC(=N)N)C(=O)N[C@H](C(=O)N[C@@H](Cc1c[nH]c2ccccc12)C(=O)N[C@@H](CCCNC(=N)N)C(=O)N[C@@H](CO)C(=O)N[C@@H](Cc1c[nH]c2ccccc12)C(=O)N[C@@H](CCCNC(=N)N)C(N)=O)C(C)C (H-KSLRRVWRSWR-NH2) | 0 |
| 40 (≈ 61.2 µg/mL) | 30 (≈ 45.9 µg/mL) | 30 (≈ 45.9 µg/mL) | – | – | – | CC(C)C[C@H](NC(=O)[C@H](CO)NC(=O)[C@@H](N)CCCCN)C(=O)N[C@H](C(=O)N[C@@H](CCCNC(=N)N)C(=O)N[C@@H](CCCNC(=N)N)C(=O)N[C@@H](Cc1c[nH]c2ccccc12)C(=O)N[C@@H](CCCNC(=N)N)C(=O)N[C@@H](CO)C(=O)N[C@@H](CCCNC(=N)N)C(=O)N[C@@H](Cc1c[nH]c2ccccc12)C(N)=O)C(C)C (H-KSLVRRWRSRW-NH2) | 0 |
| 20 (≈ 34.5 µg/mL) | 15 (≈ 25.9 µg/mL) | 2.5 (≈ 4.32 µg/mL) | – | – | – | CC(C)C[C@H](NC(=O)[C@H](Cc1c[nH]c2ccccc12)NC(=O)[C@@H](N)CCCCN)C(=O)N[C@@H](CCCNC(=N)N)C(=O)N[C@@H](CCCNC(=N)N)C(=O)N[C@H](C(=O)N[C@@H](Cc1c[nH]c2ccccc12)C(=O)N[C@@H](CCCNC(=N)N)C(=O)N[C@@H](Cc1c[nH]c2ccccc12)C(=O)N[C@@H](Cc1c[nH]c2ccccc12)C(=O)N[C@@H](CCCNC(=N)N)C(N)=O)C(C)C (H-KWLRRVWRWWR-NH2) | 100 |
| > 100 | > 100 | > 100 | – | – | – | CC[C@H](C)[C@H](NC(=O)CNC(=O)[C@H](CO)NC(=O)[C@H](CCCNC(=N)N)NC(=O)[C@@H](NC(=O)CNC(=O)[C@H](Cc1c[nH]c2ccccc12)NC(=O)[C@@H](N)CC(C)C)[C@@H](C)O)C(=O)N[C@@H](CCC(N)=O)C(=O)N1CCC[C@H]1C(=O)N[C@@H](CCC(=O)O)C(=O)N[C@@H](CCC(N)=O)C(=O)N[C@@H](Cc1cnc[nH]1)C(N)=O (H-LWGTRSGIQPEQH-NH2) | – |
| > 100 | > 100 | > 100 | – | – | – | CC(C)[C@H](NC(=O)[C@H](CC(=O)O)NC(=O)[C@H](CO)NC(=O)[C@H](CCCCN)NC(=O)CNC(=O)[C@H](CO)NC(=O)[C@H](CO)NC(=O)[C@H](Cc1cnc[nH]1)NC(=O)[C@@H](N)CCC(N)=O)C(=O)N[C@@H](CCCNC(=N)N)C(=O)N[C@@H](CCCNC(=N)N)C(=O)N[C@@H](Cc1c[nH]c2ccccc12)C(N)=O (H-QHSSGKSDVRRW-NH2) | – |
| > 100 | > 100 | > 100 | – | – | – | CC[C@H](C)[C@H](NC(=O)CNC(=O)[C@H](CO)NC(=O)[C@H](CCCNC(=N)N)NC(=O)[C@@H](NC(=O)CNC(=O)[C@H](Cc1c[nH]c2ccccc12)NC(=O)[C@H](CC(C)C)NC(=O)[C@H](CC(=O)O)NC(=O)[C@@H](NC(=O)[C@H](CCCCN)NC(=O)[C@H](CC(C)C)NC(=O)[C@@H](N)CCC(N)=O)C(C)C)[C@@H](C)O)C(N)=O (H-QLKVDLWGTRSGI-NH2) | – |
| > 80 | 80 (≈ 305 µg/mL) | 80 (≈ 305 µg/mL) | 15 (≈ 3.93 µM) | 7.5 (≈ 1.97 µM) | 2.5 (≈ 0.656 µM) | CC[C@H](C)[C@H](NC(=O)CNC(=O)[C@H](CO)NC(=O)[C@H](CCCNC(=N)N)NC(=O)[C@@H](NC(=O)CNC(=O)[C@H](Cc1c[nH]c2ccccc12)NC(=O)[C@H](CC(C)C)NC(=O)[C@H](CC(=O)O)NC(=O)[C@@H](NC(=O)[C@H](CCCCN)NC(=O)[C@H](CC(C)C)NC(=O)[C@@H](N)CCC(N)=O)C(C)C)[C@@H](C)O)C(=O)N[C@@H](CCC(N)=O)C(=O)N1CCC[C@H]1C(=O)N[C@@H](CCC(=O)O)C(=O)N[C@@H](CCC(N)=O)C(=O)N[C@@H](Cc1cnc[nH]1)C(=O)N[C@@H](CO)C(=O)N[C@@H](CO)C(=O)NCC(=O)N[C@@H](CCCCN)C(=O)N[C@@H](CO)C(=O)N[C@@H](CC(=O)O)C(=O)N[C@H](C(=O)N[C@@H](CCCNC(=N)N)C(=O)N[C@@H](CCCNC(=N)N)C(=O)N[C@@H](Cc1c[nH]c2ccccc12)C(=O)N[C@@H](CCCNC(=N)N)C(=O)N[C@@H](CO)C(=O)N[C@@H](CCCNC(=N)N)C(=O)N[C@@H](Cc1ccc(O)cc1)C(N)=O)C(C)C [Ixosin-B-amide] (H-QLKVDLWGTRSGIQPEQHSSGKSDVRRWRSRY-NH2) | 0 |
| > 100 | > 100 | 0.5 (≈ 0.167 µg/mL) | – | – | – | CC1(C)S[C@@H]2[C@H](NC(=O)Cc3ccccc3)C(=O)N2[C@H]1C(=O)O [PENICILLIN G] | – |
